Data set [1] has as its system A549 CSC. The note with it: stated as known; cited from earlier work.
For data set [2], the system named is L929 fibroblasts. Description: Annexin V/PI apoptosis, normal cell line. It is filed as cell-based. As to conditions: L929 fibroblasts cultured under attached conditions.

We go through one substance from patent publication US20220257514A1, “MONOSACCHARIDE-TAGGED NANO-LIPOSOME DRUG DELIVERY SYSTEM, THE MANUFACTURE AND USE FOR DRUG TARGETING DELIVERY THEREOF” (National Yang Ming Chiao Tung University, priority 2019, published 2022).

As to ceramide [free ceramide], in data set [1], the “resistance of A549 CSC” value was “resistant to free ceramide”. Also, the “apoptosis in normal cells” value in data set [2] is “neither free ceramide nor G5C3 cause significant apoptosis”.
